Data published in PMC7370100, “In Vitro Assessment of the Genotoxic Hazard of Novel Hydroxamic Acid- and Benzamide-Type Histone Deacetylase Inhibitors (HDACi)” (International Journal of Molecular Sciences, 2020).
pIC50: −log10 of the molar value. Read-outs that look alike come from different tables or passages of the source.

Assays:
[1] = test system: V79 hamster lung cells; test: Alamar blue assay (cell viability), V79 cells; type: cell-based; settings: for less cytotoxic to non-malignant V79 cells than to malignant neuroblastoma cells (IC50 based): selection criterion, IC50 of Table S1
Experimental: (§1) V79 hamster lung cells, which are recommended in the OECD toxicology guidelines for hazard identification (i.e., cytotoxicity and genotoxicity) of chemicals, were purchased from the German Collection of Microorganisms and Cell Cultures (DSMZ, Braunschweig, Germany). They were cultured in Dulbecco´s modified Eagle medium and Ham´s F12 medium (DMEM/F12) (PromoCell, Heidelberg, Germany) containing 10% fetal calf serum at 37 °C in a humidified atmosphere containing 5% CO2. VC8 hamster cells were defective in DNA double-strand break (DSB) repair by homologous recombination (HR) due to the lack of functional BRCA2 protein [69, 70]. VC8 cells were provided by B. Kaina (Institute of Toxicology, Mainz, Germany). Nucleotide excision repair defective XPA and CSB deficient cells were also provided by B. Kaina and were described before. They were grown in DMEM containing 10% fetal calf serum. Human neuroblastoma cells (IMR-32 and SH-SY5Y) were purchased from the German Collection of Microorganisms and Cell Cultures (DSMZ, Braunschweig, Germany) and were used as a model of malignant cells. They were grown in DMEM or RPMI (Roswell park memorial institute) medium, respectively, containing 10% fetal calf serum. If not stated otherwise, HDACi were added to the exponentially growing cells and analyses were performed 6 h to 72 h later.
(§2) Cell viability was determined using the Alamar blue assay, which reflected the mitochondrial activity. Viable cells were characterized by an effective mitochondrial metabolization of the non-fluorescent dye resazurin (Sigma, Steinheim, Germany) to fluorescent resorufin (excitation: 535 nm, emission: 590 nm). Relative viability in the untreated control was set to 100%. In addition, the Neutral red assay, which measures the integrity of lysosomal membranes, was used to monitor cytotoxicity. To this end, cells were incubated with the Neutral red solution (0.01%) in an atmosphere containing 5% CO2 for 90 min before they were fixed (1% formaldehyde/1% CaCl2). Afterwards, the Neutral red that was taken up by the cells was extracted (50% ethanol/1% of acetic acid, 15 min at room temperature (RT)) and absorbance (540 nm) was measured. If not stated otherwise, data are shown as the mean ± standard deviation (SD) of two to three independent experiments each performed in quadruplicate. Approximate IC50 (~IC50, see Supplementary Table S1) were calculated from the corresponding dose-response curves.

[2] = test system: SH-SY5Y neuroblastoma cells; test: Alamar blue assay (cell viability), SH-SY5Y cells; type: cell-based, human
Experimental: as §1, §2

[3] = test system: IMR-32 neuroblastoma cells; test: Alamar blue assay (cell viability), IMR-32 cells; type: cell-based, human
Experimental: as §1, §2

[4] = test system: V79 hamster lung cells; test: Neutral red assay (cytotoxicity), V79 cells; type: cell-based
Experimental: as §1, §2

[5] = test system: V79 cells; test: Caspase-3/-7 cleavage by Western blot (apoptosis); type: cell-based, hamster; settings: for activation of caspase-3 and -7: 10 µM, 24 h, V79, in words; for Apoptosis: summary grade, calculated on the basis of caspase-3,-7 cleavage and SubG1 population, V79; for apoptosis: key: −: no effect; 0: weak effect; +: moderate effect; ++: strong effect; +++: very strong effect as compared to untreated controls
Experimental: The activation of the DDR was investigated by Western blot analysis. To this end, total cell extracts were obtained by lysing an equal number of cells in Roti®-Load buffer (Carl Roth GmbH (Karlsruhe, Germany)) (5 min, RT). After sonication (EpiShear™ Probe sonicator, Active Motif, La Hulpe, Belgium), proteins were denatured by heating (5 min, 95 °C) and separated by SDS-PAGE (6% or 12.5% gel). Proteins were transferred onto a nitrocellulose membrane (GE Healthcare, Little Chalfont, UK) via the Protean Mini Cell System (BioRad (München, Germany)). The membrane was blocked with 5% non-fat milk in TBS/0.1% Tween 20 (MERCK, Darmstadt, Germany) (2 h, RT) and incubated with the corresponding primary antibody (1:1000, overnight, 4 °C). After washing with TBS/0.1% Tween 20, the secondary (peroxidase-conjugated) antibody was added (1:2000, 2 h, RT). The Fusion FX7 imaging system (PeqLab, Erlangen, Germany) was used for visualization of the bound antibodies. The following primary antibodies were used: Anti-Ser15 phosphorylated protein 53 (p-p53), anti-Talin-1, anti-Ser 345 checkpoint kinase 1 (p-Chk1), anti-cleaved caspase 3 and 7 (Cell Signaling, Beverly, MA, USA), anti-Ser824 phosphorylated Krüppel-associated box domain (KRAB)-associated protein-1 (p-Kap1), anti-Ser1981 phosphorylated ataxia telangiectasia mutated (pATM) and anti-Thr68 phosphorylated checkpoint kinase-2 (p-Chk2) (both Abcam, Cambridge, MA, USA), anti-Ser139 phosphorylated histone H2AX (γH2AX, Millipore, Billerica, MA, USA), and anti-β-actin (Santa Cruz, CA, USA). As secondary antibodies, horseradish peroxidase-conjugated secondary antibodies goat anti-mouse IgG and mouse anti-rabbit IgG (Rockland, Limerick, PA, USA) (2 h, RT) were used.

[6] = test system: VC8 hamster cells (BRCA1/2 defect); test: Viability of DSB repair defective VC8 versus wild-type V79 cells (Alamar blue); type: cell-based; settings: summary grade, V79 versus VC8; note: key: −: no effect; 0: weak effect; +: moderate effect; ++: strong effect; +++: very strong effect as compared to untreated controls
Experimental: as §1, §2

[7] = test system: V79 cells; test: Alkaline comet assay (DNA strand breaks); settings: for Mean (% DNA in tail) / DNA strand breaks (comet assay): 24 h; for Mean (% DNA in tail) / Comet Assay: V79; for Mean (% DNA in tail): untreated control 16.8; for DNA strand breaks (comet assay): V79, in words; for Comet Assay: summary grade
Experimental: The formation of DNA strand breaks and apurinic/apyrimidinic sites was monitored employing the alkaline comet assay [87], which is part of the OECD guideline of in vivo genotoxicity testings and detects DNA strand breaks (DNA single- and double-strand breaks) and alkali-labile sites [87]. Briefly, after aspiration of the medium and trypsinization, cells were mixed with 0.5% melting agarose and transferred onto agarose-coated (1.5%) slides. After lysis in alkaline buffer (pH 10) (1 h, 4 °C, light protection) and unwinding of the DNA in precooled lysis buffer (pH >13) (20 min, 4 °C, light protection), electrophoresis was performed (electric current: 300 mA constant; 1 V/cm). After neutralization in salt buffer (pH 7.5) and staining with propidium iodide solution (50 µg/mL), comets were evaluated by fluorescence microscopy. Quantification of migrated DNA was performed with TriTek Comet Score™ software Version 1.5, evaluating ≥50 cells per condition (blinded assessment). […] Fold increase in tail intensities of treated cells were calculated by relating the % DNA in tail of treated cells to that of the corresponding untreated controls, which were set to 1.0 (see Figure 2B).

[8] = V79, 24 h after drug treatment (values match Alamar blue data of Table S1), read-out: Viability (IC50) 24 h
[9] = V79, 72 h after drug treatment (values match Alamar blue data of Table S1), read-out: Viability (IC50) 72 h
[10] = 24 h, approximate IC50, read-out: IC50 - 24 h Treatment, SH-SY5Y
[11] = 72 h, approximate IC50, read-out: IC50 - 72 h Treatment, SH-SY5Y
[12] = 24 h, approximate IC50, read-out: IC50 - 24 h Treatment, IMR-32
[13] = 72 h, approximate IC50, read-out: IC50 - 72 h Treatment, IMR-32
[14] = 24 h, approximate IC50, read-out: IC50 - 24 h Treatment, V79
[15] = 72 h, approximate IC50, read-out: IC50 - 72 h Treatment, V79
[16] = Homo sapiens, SH-SY5Y, 24 h, approximate IC50, read-out: IC50 - 24 h Treatment, SH-SY5Y

pIC50 [2, 10]	pIC50 [2, 11]	pIC50 [3, 12]	pIC50 [3, 13]	Mean (% DNA in tail) ([7]; 2 µM)	Mean (% DNA in tail) ([7]; 10 µM)	Mean (% DNA in tail) ([7]; 50 µM)	Comet Assay [7]	pIC50 [2, 16]	Mean (% DNA in tail) ([7]; 100 µM)	Structure (SMILES)	pIC50 [1, 8]	pIC50 [1, 9]	less cytotoxic to non-malignant V79 cells than to malignant neuroblastoma cells (IC50 based) [1] [fold]	pIC50 [4, 14]	pIC50 [4, 15]	activation of caspase-3 and -7 [5]	Apoptosis [5]	DSB Repair def. Cells [6]	DNA strand breaks (comet assay) [7]	also measured
4.30	6.05	6.22	6.70	15.1	6.9	17.3	−			CN(C)c1ccc(C(=O)N(CC(=O)NCc2ccccc2)Cc2ccc(C(=O)NO)cc2)cc1 [DDK137]	4.48	4.96	≥ 10	4.44	4.77	activation of caspase-3 and -7	+	+	did not cause a significant rise in DNA damage	
					34.5	37.8	−	< 4.30	34.9	Nc1ccccc1NC(=O)c1ccc(CNC(=O)OCc2cccnc2)cc1 [Entinostat, entinostat, reference compound]	< 4.30	5.15				only activated caspase-7 but not caspase-3	0	+	only promoted the formation of DNA strand breaks	pIC50 ([2]; Homo sapiens, SH-SY5Y, 72 h, approximate IC50, read-out: IC50 - 72 h Treatment, SH-SY5Y): 5.10; pIC50 ([3]; Homo sapiens, IMR-32, 24 h, approximate IC50, read-out: IC50 - 24 h Treatment, IMR-32): 4.30; pIC50 ([3]; Homo sapiens, IMR-32, 72 h, approximate IC50, read-out: IC50 - 72 h Treatment, IMR-32): 5.70; pIC50 ([4]; V79, 24 h, approximate IC50, read-out: IC50 - 24 h Treatment, V79): < 4.30; pIC50 ([4]; V79, 72 h, approximate IC50, read-out: IC50 - 72 h Treatment, V79): 5.70
4.48	4.77	5.52	5.70		34.0	48.1	+		35.5	Nc1ccc(F)cc1NC(=O)c1ccc(CONC(=O)C=Cc2cccnc2)cc1 [MPK77]	< 4.30	4.30	≥ 10	< 4.30	4.46	nor did they activate the executor caspases-3 and -7	−	+	significant increase in DNA strand breaks at all concentrations tested	
				14.0	8.0	13.2	−	4.48		O=C(CCCCCCC(=O)Nc1ccccc1)NO [Vorinostat, vorinostat, reference compound]						activation of caspase-3 and -7	++	++	did not cause a significant rise in DNA damage	
